“Also recorded” adds a separate entry of the source.
Tests used:
alveolar macrophages = assay: Reconstitution of adherence of B. pertussis mutant BP101/TOX6 to macrophages by exogenous PT and subunits; type: cell-based; conditions: PT component 50 ug/ml coated on BP101/TOX6; 10^7 bacteria, 10^5 rabbit alveolar macrophages, 3 hours; mean ± standard deviation
Procedure: (§1) The ability of PT or the individual subunits to act as adhesins for PT-deficient bacteria to eukaryotic cells was assessed as described by Tuomanen et al (1985). Infect. Dis. 153, 118-125 and Relman et al (199) Cell 61, 1375-1382. […] For the test reported in Table 1 PT or its individual subunits (50 ug/ml) were incubated for 30 minutes with strain BPTOX6 for ciliated cell assays or BP101/TOX6 for macrophage assays in order to coat the bacteria with adhesin. 10^7 bacteria were then incubated for 3 hours with 10^5 ciliated cells or alveolar macrophages harvested from healthy rabbits (2,4). Adherence was detected by staining of the bacteria with a 1:40 dilution of fluorescein conjugated anti-Bordetella antibody (Difco, Detroit, Mich.). Values are expressed as the mean ±standard deviation of the number of bacteria per eukaryotic cell, 25 cells/test, and each test repeated in triplicate. The procedure is described in more detail in Saukkonen et al Proc. Natl. Acad. Sci. 89,118-122 (1991).

ciliated cells = assay: Reconstitution of adherence of B. pertussis mutant BPTOX6 to ciliated cells by exogenous PT and subunits; type: cell-based; conditions: PT component 50 ug/ml coated on BPTOX6; 10^7 bacteria, 10^5 rabbit ciliated cells, 3 hours; mean ± standard deviation
Procedure: as §1

ELAM = assay: Assay 1: inhibition of adherence of neutrophils to ELAM-coated surfaces (FIG. 4); type: cell-based; conditions: protein at 50 ug/ml, compared to buffer control
Procedure: (§2) In the study, the proteins PT, B-oligomer, S2, S3, S2/S3 and S3/S2 were taken up in an isotonic buffered tissue culture medium to a concentration of 50 ug/ml and the ability of each of them to inhibit adhesion of neutrophils to ELAM or GMP140 was determined as described by Wright et al J. Exp. Med. 158:2016 (1983). The buffer was employed as the control and each protein studied was compared to the control for the ability to decrease adhesion capacity.
Assay 1 is inhibition of adherence of enutrophils to ELAM-coated surfaces as described in connection with FIG. 4. Values ±20% inhibition are significant.

GMP140 = assay: Inhibition of adhesion of neutrophils to GMP140 (FIG. 4B); type: cell-based; conditions: protein at 50 ug/ml, compared to buffer control
Procedure: as §2

[1] = Carbohydrate recognition: binding to glycolipids separated by thin layer chromatography (FIG. 3)
From the text: The variability in the S2 and S3 segments shown in FIG. 1 SEQ ID NOS:42-47 is, quite clearly responsible for the variation in carbohydrate binding properties of PT, S2 and S3 which have been observed.
The peptides S2/S3 and S3/S2 are novel therapeutic agents and are specifically included within the scope of this invention, as are the genes which express them.
In FIG. 3, the dark bars represent the positions of glycolipids after separation by thin layer chromatography in accordance with the method of Tuomanen et al, J. Exp Med 168:267, 1988.

[2] = system: leukocytes in cerebrospinal fluid; assay: Rabbit model of pneumococcal meningitis: leukocytes in cerebrospinal fluid (FIG. 6b, 7B); type: in vivo; conditions: rabbits with established pneumococcal meningitis; intravenous PT or B-oligomer
From the text: This is shown experimentally in FIG. 6b. In the experiments rabbits with established pneumonococcal meningitis received intravenous PT or B-oligomer.
FIG. 7B illustrates the use of anti S-segment antibodies to decrease the inflammation in a rabbit model of meningitis. Rabbits with established pneumonococcal meningitis received antibodies to intact PT or PT subunits: S2:3A12, S3:6F8 and S4:9C6.

pertussis toxin [PT]
Number of bacteria/target cell, Macrophage (alveolar macrophages): 21 ± 2.3 bacteria/target cell | Number of bacteria/target cell, Ciliated Cell (ciliated cells): 6.7 ± 0.8 bacteria/target cell | inhibition of neutrophil/leukocyte adherence to ELAM (ELAM): 60% | inhibition of neutrophil adhesion to GMP140 (GMP140): 30% | carbohydrates (glycolipids) recognized [1]: binds to lactosylceramide, glucosylceramide, sulfatides and gangliosides; also recorded: recognize lactosylaceramide, and gangliosides | accumulation of leukocytes in cerebrospinal fluid [2]: decreased the accumulation of leukocytes in cerebrospinal fluid
